# Measurements reported in ChEMBL document CHEMBL1201862, “PubChem BioAssay data set” (2004).
# “And” between values parts separate entries of the source, which are not always exact repeats. Equal entries are not always repeated.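 Cultured in 96-well plates, cells were exposed to test compound for 48 hours across five concentrations. At the GI50, growth is halved.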 The source made the active and inactive calls. Cut-off read from the data, not from the text of the source: active = GI50 up to about 1.1 µM and inactive = higher. Residues, ends and D or L forms follow the SMILES beside them. *: point of attachment. Boc = CC(C)(C)OC(=O)*; OBn = c1ccc(CO*)cc1
# Assays:
# Test in all cases: NCI-60 cell line screen, 48 h
# ACHN = system: ACHN
# COLO 205 = system: COLO 205
# HCT-15 = system: HCT-15
# HOP-62 = system: HOP-62
# HOP-92 = system: HOP-92
# HT-29 = system: HT-29
# IGROV-1 = system: IGROV-1
# MCF7 = system: MCF7
# MDA-MB-231 = system: MDA-MB-231
# MDA-MB-435 = system: MDA-MB-435
# MOLT-4 = system: MOLT-4
# Malme-3M = system: Malme-3M
# NCI-H460 = system: NCI-H460
# NCI/ADR-RES = system: NCI/ADR-RES
# OVCAR-3 = system: OVCAR-3
# OVCAR-8 = system: OVCAR-8
# RXF 393 = system: RXF 393
# SNB-19 = system: SNB-19
# SR = system: SR
# HCC 2998 = system: HCC 2998
Compound,GI50 (ACHN),GI50 (COLO 205),GI50 (HCT-15),GI50 (HOP-62),GI50 (HOP-92),GI50 (HT-29),GI50 (IGROV-1),GI50 (MCF7),GI50 (MDA-MB-231),GI50 (MDA-MB-435),GI50 (MOLT-4),GI50 (Malme-3M),GI50 (NCI-H460),GI50 (NCI/ADR-RES),GI50 (OVCAR-3),GI50 (OVCAR-8),GI50 (RXF 393),GI50 (SNB-19),GI50 (SR),GI50 (HCC 2998)
COC(=O)C1CCC(=O)N1CN(C(C)=O)c1cc(OC)ccc1OC (stereo unspecified),> 100 µM (inactive),> 100 µM (inactive),> 100 µM,> 100 µM (inactive),> 100 µM (inactive),> 100 µM (inactive),> 100 µM (inactive),> 100 µM (inactive),> 100 µM (inactive),> 100 µM (inactive),> 100 µM (inactive),> 100 µM (inactive),> 100 µM (inactive),> 100 µM (inactive),> 100 µM (inactive),> 100 µM (inactive),> 100 µM (inactive),> 100 µM (inactive),16.9 µM (inactive),
COc1cc2c(c(OC)c1OC)C(=O)[C@H](O)[C@H]2NC(N)=O,34.1 µM (inactive),50.7 µM (inactive),27.7 µM,> 100 µM (inactive),,> 100 µM (inactive),49.5 µM (inactive),> 100 µM (inactive),86.3 µM (inactive),> 100 µM (inactive),95.9 µM (inactive),> 100 µM (inactive),66.8 µM (inactive),> 100 µM (inactive),82 µM (inactive),> 100 µM (inactive),47.8 µM (inactive),> 100 µM (inactive),,> 100 µM (inactive)
COC(=O)c1ccc(C)cc1CC1Cc2cccc(C)c2C1=O (stereo unspecified),18.8 µM (inactive),4.9 µM (inactive),3.1 µM,17.9 µM (inactive),16 µM (inactive),2.42 µM (inactive),7.96 µM (inactive),2.38 µM (inactive),7.1 µM (inactive),1.48 µM (inactive),4.11 µM (inactive),5.97 µM (inactive),4.89 µM (inactive),5.16 µM (inactive),4.95 µM (inactive),5.08 µM (inactive),7.87 µM (inactive),4.4 µM (inactive),,9.59 µM (inactive)
C=CC(C)(O)CCC1C(=C)C(O)CC2C(C)(C)CCCC12C (stereo unspecified),26 µM (inactive),16 µM (inactive),17.6 µM,20.6 µM (inactive),17.3 µM (inactive),17.8 µM (inactive),24.3 µM (inactive),23.2 µM (inactive),17.7 µM (inactive),18.6 µM (inactive),14.2 µM (inactive),18.2 µM (inactive),16.9 µM (inactive),18.5 µM (inactive),18.9 µM (inactive),26.1 µM (inactive),14.3 µM (inactive),18.1 µM (inactive),,18.6 µM (inactive)
CCOC(=O)c1sc2c(c1OC(=O)c1cc(OC)c(OC)c(OC)c1)c(=O)n(-c1ccccc1)c(=S)n2-c1ccccc1,> 100 µM (inactive),> 100 µM (inactive),47.3 µM,> 100 µM (inactive),22.2 µM (inactive),98.9 µM (inactive),> 100 µM (inactive),> 100 µM (inactive),56.6 µM (inactive),79.1 µM (inactive),28.4 µM (inactive),> 100 µM (inactive),51.5 µM (inactive),75.3 µM (inactive),87.7 µM (inactive),74.8 µM (inactive),> 100 µM (inactive),> 100 µM (inactive),,81.3 µM (inactive)
COc1ccc2c(c1)nc1n2C(c2c(F)cccc2Cl)SC1 (stereo unspecified),20.8 µM (inactive),3.98 µM (inactive),3.03 µM,,> 37.3 µM (inactive),4.52 µM (inactive),6.17 µM (inactive),3.66 µM (inactive),3.49 µM (inactive),0.703 µM (active),,1.02 µM (active),3.68 µM (inactive),1.56 µM (inactive),,3.92 µM (inactive),,,,4.2 µM (inactive)
CSC(=S)NN=C1CCCCC1,21 µM (inactive),47.1 µM (inactive),29.9 µM,47.3 µM (inactive),> 100 µM (inactive),47.6 µM (inactive),12.7 µM (inactive),33.8 µM (inactive),17.6 µM (inactive),18.7 µM (inactive),15.7 µM (inactive),14.6 µM (inactive),32.1 µM (inactive),24.7 µM (inactive),22.3 µM (inactive),8.93 µM (inactive),> 100 µM (inactive),96.6 µM (inactive),,
CN1C(=O)C(/C=N/NC(=O)c2cccnc2)C(N)N(C)C1=O (stereo unspecified),> 100 µM (inactive),> 100 µM (inactive),> 100 µM,> 100 µM (inactive),,> 100 µM (inactive),> 100 µM (inactive),> 100 µM (inactive),> 100 µM (inactive),> 100 µM (inactive),> 100 µM (inactive),> 100 µM (inactive),> 100 µM (inactive),> 100 µM (inactive),> 100 µM (inactive),> 100 µM (inactive),> 100 µM (inactive),> 100 µM (inactive),,> 100 µM (inactive)
O=C(OC1CN2CCC1CC2)N(c1ccccc1)c1ccccc1 (stereo unspecified),> 100 µM (inactive),43.1 µM (inactive),> 100 µM,80.5 µM (inactive),34.7 µM (inactive),44.9 µM (inactive),> 100 µM (inactive),74.8 µM (inactive),54 µM (inactive),> 100 µM (inactive),43.1 µM (inactive),> 100 µM (inactive),,> 100 µM (inactive),> 100 µM (inactive),> 100 µM (inactive),50.1 µM (inactive),> 100 µM (inactive),4.61 µM (inactive),
Cc1nc2c(Br)cc(Br)cc2c(=O)n1-c1ccccc1NC1OC(CO)C(O)C(O)C1O (stereo unspecified),> 100 µM (inactive),> 100 µM (inactive),> 100 µM,> 100 µM (inactive),> 100 µM (inactive),> 100 µM (inactive),> 100 µM (inactive),> 100 µM (inactive),> 100 µM (inactive),> 100 µM (inactive),> 100 µM (inactive) and 79.1 µM (inactive),> 100 µM (inactive),> 100 µM (inactive),> 100 µM (inactive),> 100 µM (inactive),> 100 µM (inactive),> 100 µM (inactive),> 100 µM (inactive),,> 100 µM (inactive)
CN(C)CCNC1=CC(=O)c2c(O)ccc(O)c2C1=O,11.5 µM (inactive),1.9 µM (inactive),4.08 µM,16.3 µM (inactive),14.2 µM (inactive),2.59 µM (inactive),6.17 µM (inactive),2.49 µM (inactive),11.7 µM (inactive),1.8 µM (inactive),5.14 µM (inactive),1.25 µM (inactive),3.3 µM (inactive),2.58 µM (inactive),2.33 µM (inactive),4.39 µM (inactive),14.2 µM (inactive),16 µM (inactive),,3.88 µM (inactive)
CCOC(=O)C1=C(C)NC(=O)NC1c1ccc(N(CCCl)CCCl)cc1Cl (stereo unspecified),14.5 µM (inactive),18.6 µM (inactive),17.1 µM,15.2 µM (inactive),13 µM (inactive),16 µM (inactive),15.1 µM (inactive),13.6 µM (inactive),13.6 µM (inactive),19 µM (inactive),,14.9 µM (inactive),13 µM (inactive),16.7 µM (inactive),15.5 µM (inactive),12.9 µM (inactive),17.1 µM (inactive),17.3 µM (inactive),,
NCS(=O)(=O)O,> 100 µM (inactive),> 100 µM (inactive),> 100 µM,> 100 µM (inactive),> 100 µM (inactive),> 100 µM (inactive),> 100 µM (inactive),> 100 µM (inactive),> 100 µM (inactive),> 100 µM (inactive),> 100 µM (inactive),> 100 µM (inactive),35.2 µM (inactive),> 100 µM (inactive),> 100 µM (inactive),> 100 µM (inactive),> 100 µM (inactive),> 100 µM (inactive),,> 100 µM (inactive)
O=S(=O)(O)c1ccc2c(/N=N/c3c(O)ccc4ccccc34)cccc2c1,> 100 µM (inactive),> 100 µM (inactive),> 100 µM,> 100 µM (inactive),> 100 µM (inactive),> 100 µM (inactive),65.8 µM (inactive),> 100 µM (inactive),> 100 µM (inactive),> 100 µM (inactive),,> 100 µM (inactive),> 100 µM (inactive),> 100 µM (inactive),88.9 µM (inactive),> 100 µM (inactive),> 100 µM (inactive),> 100 µM (inactive),> 100 µM (inactive),
CC(C)C(NC(=O)C(Cc1ccccc1)NC(=O)OC(C)(C)C)C(=O)NCC(=O)OCc1ccccc1 (stereo not drawn) (Boc-Phe-Val-Gly-OBn; configuration not given here),17.5 µM (inactive),20.6 µM (inactive),12.9 µM,19.2 µM (inactive),,17.5 µM (inactive),14.7 µM (inactive),> 10 µM (inactive),16.6 µM (inactive),6.92 µM (inactive),18.5 µM (inactive),18.5 µM (inactive),18.8 µM (inactive),> 100 µM (inactive),14.4 µM (inactive),19.5 µM (inactive),,25.6 µM (inactive),,17.8 µM (inactive)
